Drawing on patent publication US20120058999A1, “Substituted Tetrahydropyrrolopyrazine Compounds” (Gruenenthal GmbH, priority 2010, published 2012), this text covers inhibition for three compounds.

The target in assay [1] is T1, rat B1R (Rattus norvegicus, UniProt P97583).
T1 construct: expressed in transfected cells; host or cells: CHO K1 cells (stably transfected)
T1 sequence (P97583 1-337): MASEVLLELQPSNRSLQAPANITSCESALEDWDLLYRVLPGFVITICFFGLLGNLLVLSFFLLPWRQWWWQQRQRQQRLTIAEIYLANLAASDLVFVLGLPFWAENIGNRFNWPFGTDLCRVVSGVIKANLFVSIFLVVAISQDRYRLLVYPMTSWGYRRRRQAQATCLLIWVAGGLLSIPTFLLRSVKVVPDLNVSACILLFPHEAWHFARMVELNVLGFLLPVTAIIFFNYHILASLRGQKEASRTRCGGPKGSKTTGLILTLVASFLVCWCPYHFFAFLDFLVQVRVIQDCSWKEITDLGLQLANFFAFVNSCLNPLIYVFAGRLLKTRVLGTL
Briefly: Functional investigation on the bradykinin 1 receptor, cell-based fluorescent calcium-mobilization assay (FLIPR), rat. To be noted: 10 μM test substance; CHO K1 cells transfected with rat B1R gene; agonist Des-Arg9-bradykinin at EC80; % of maximum achievable inhibition. Here is the method: (§1) The agonistic or antagonistic action of substances can be quantified on the bradykinin 1 receptor (B1R) of the human and rat species with ectopically expressing cell lines (CHO K1 cells) and with the aid of a Ca2+-sensitive dye (Fluo-4) using a fluorescent imaging plate reader (FLIPR). The value in % activation is based on the Ca2+ signal after addition of Lys-Des-Arg9 bradykinin (0.5 nM) or Des-Arg9 bradykinin (100 nM). Antagonists lead to a suppression of the Ca2+ influx following administration of the agonist. The % inhibition in comparison with the maximum achievable inhibition is indicated.
(§2) The agonistic or antagonistic action of substances can be determined on the bradykinin 1 receptor (B1R) of humans and rats by means of a cell-based fluorescent calcium-mobilization assay. According to this assay agonist-induced increase of intracellular free Ca^2+ is quantified by means of a Ca^2+-sensitive dye (Fluo-4 type, Molecular Probes Europe BV, Leiden, Netherlands), in a Fluorescent Imaging Plate Reader (FLIPR, Molecular Devices, Sunnyvale, USA) and/or the Novostar (BMG Labtech GmbH, Offenburg, Germany).
(§3) Chinese hamster ovary cells (CHO K1 cells), which are stably transfected with the human B1R gene (hB1R cells), or with the B1R gene of rats (rB1R cells) are used. For functional investigations these cells are seeded into black 96-well plates with a clear bottom (BD Biosciences, Heidelberg, Germany or Greiner, Frickenhausen, Germany) in a density of 20,000-35,000 cells/well. The cells are incubated overnight in a humidified atmosphere at 37° C. and 5% CO2 in culture medium (hB1R cells: Nutrient Mixture Ham's F12, Gibco Invitrogen GmbH, Karlsruhe, Germany or DMEM, Sigma-Aldrich, Taufkirchen, Germany; rB1R cells: D-MEM/F12, Gibco Invitrogen GmbH, Karlsruhe, Germany) with 10 vol. % FBS (foetal bovine serum, Gibco Invitrogen GmbH, Karlsruhe, Germany). On the following day the cells are loaded with the Ca^2+-sensitive dye Fluo-4-AM (Molecular Probes Europe BV, Leiden, Netherlands):
(§4) Method A: The medium of the cells is removed and cell plates are incubated with loading solution, which contains 2.13 μM Fluo-4-AM, 2.5 mM probenecid (Sigma-Aldrich, Taufkirchen, Germany), and 10 mM HEPES (Sigma-Aldrich, Taufkirchen, Germany) in HBSS buffer (Hank's buffered saline solution, Gibco Invitrogen GmbH, Karlsruhe, Germany) for 60 minutes at 37° C. After the plates are washed twice with HBSS buffer, HBSS buffer supplemented 0.1% BSA (bovine serum albumin; Sigma-Aldrich, Taufkirchen, Germany), 5.6 mM glucose and 0.05% gelatine (Merck KGaA, Darmstadt, Germany) is added. Cell plates are incubated for at least 20 minutes in the dark at room temperature before they are used for the Ca^2+ measurement in the FLIPR or Novostar. Method B: The plates are washed with buffer A (15 mM HEPES, 80 mM NaCl, 5 mM KCl, 1.2 mM CaCl2, 0.7 mM MgSO4, 2 mg/ml glucose, 2.5 mM probenecid) and subsequently loaded with buffer A containing 2.4 μM Fluo-4-AM and 0.025% pluronic F127 (Sigma-Aldrich, Taufkirchen, Germany) for 60 minutes at 37° C. Cell plates are washed twice with buffer A. Then, buffer A supplemented with 0.05% BSA and 0.05% gelatine is added and cell plates are incubated in the dark at room temperature for at least 20 minutes before measurement in the FLIPR or Novostar is started.
(§5) The Ca^2+-dependent fluorescence is measured both before and after the addition of substances (λex=488 nm, λem=540 nm). For quantification of the effect the highest fluorescence intensity (FC, fluorescence counts) over time is given.
(§6) The FLIPR protocol consists of two substance additions, done within the instrument while continuously monitoring the Ca^2+-dependent fluorescence at 540 nm. When the Novostar was used, one addition had to be done outside the instrument. First of all test substances (10 μM) are pipetted onto the cells and the intracellular Ca^2+ rise is compared with the control (hB1R: Lys-Des-Arg9-bradykinin >=50 nM; rB1R: Des-Arg9-bradykinin >=1 μM). […]

Assay [2] deals with T2, human B1R (Homo sapiens, UniProt P46663).
T2 construct: expressed in transfected cells; host or cells: CHO K1 cells (stably transfected)
T2 sequence (P46663 1-353): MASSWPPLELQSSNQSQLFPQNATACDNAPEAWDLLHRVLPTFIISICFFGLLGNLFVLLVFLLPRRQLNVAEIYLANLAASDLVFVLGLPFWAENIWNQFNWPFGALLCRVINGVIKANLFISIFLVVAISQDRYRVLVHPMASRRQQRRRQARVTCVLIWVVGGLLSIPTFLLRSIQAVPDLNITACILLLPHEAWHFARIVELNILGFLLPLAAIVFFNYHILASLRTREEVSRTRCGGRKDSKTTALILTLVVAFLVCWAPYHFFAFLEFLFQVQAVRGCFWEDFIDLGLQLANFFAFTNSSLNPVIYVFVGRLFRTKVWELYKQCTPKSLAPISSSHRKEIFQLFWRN
Briefly: Functional investigation on the bradykinin 1 receptor, cell-based fluorescent calcium-mobilization assay (FLIPR), human. To be noted: 10 μM test substance; CHO K1 cells transfected with human B1R gene; agonist Lys-Des-Arg9-bradykinin at EC80; % of maximum achievable inhibition. Here is the method:
as §1, §2, §3, §4, §5, §6

Structures are written as SMILES.

As usually defined, the inhibition is the change of the read-out against control, counted positive when it falls. `CN1CCN([C@@H]2CCC[C@H](NC(=O)CCC3c4cccn4CCN3S(=O)(=O)c3cccc(C(F)(F)F)c3)C2)CC1` (relative stereo) [CC-10, N-[cis-3-(4-Methyl-piperazin-1-yl)-cyclohexyl]-3-[2-[[3-(trifluoromethyl)phenyl]sulfonyl]-1,2,3,4-tetrahydro-pyrrolo[1,2-a]pyrazin-1-yl]-propionamide]: the inhibition at 10 µM in assay [1] amounted to 36%; in assay [2] it was 29%.

With `COc1cc(C)c(S(=O)(=O)N2CCn3cccc3C2COCC(=O)N(C)C2CCC(N3CCN(C)CC3)CC2)c(C)c1` (stereo not drawn) [SC-05, 2-[[2-[(4-Methoxy-2,6-dimethyl-phenyl)sulfonyl]-1,2,3,4-tetrahydro-pyrrolo[1,2-a]pyrazin-1-yl]-methoxy]-N-methyl-N-[4-(4-methyl-piperazin-1-yl)-cyclohexyl]-acetamide], the figures for the inhibition at 10 µM in assay [1] and in assay [2] were 100% and 101%, respectively.

In the case of `COc1cc(C)c(S(=O)(=O)N2CCn3cccc3C2CCCC(=O)N[C@H]2CCC[C@@H](N3CCN(C)CC3)C2)c(C)c1` (relative stereo) [CC-07, 4-[2-[(4-Methoxy-2,6-dimethyl-phenyl)sulfonyl]-1,2,3,4-tetrahydro-pyrrolo[1,2-a]pyrazin-1-yl]-N-[cis-3-(4-methyl-piperazin-1-yl)-cyclohexyl]-butyramide], the inhibition at 10 µM in assay [1] was determined as 101%; in assay [2], 86%.
